# Values of other authors, collected in US6455070B1, “Composition for treating symptoms of influenza” (East Park Research, Inc., priority 2001, dated 2002).
# Tested on: wide variety of viruses
# Conditions: greatest activity under alkaline conditions (pH 7.5)
compound,measurement,value
COC(=O)C1=CO[C@@H](C)[C@@H](C=O)[C@@H]1CC(=O)[O-].COC(=O)C1=CO[C@@H](C)[C@@H](C=O)[C@@H]1CC(=O)[O-].[Ca+2] [calcium elenolate],in vitro antiviral activity,activity against a wide variety of viruses
